Experimental findings from patent US20050209278A1, “Piperidinyl- and piperazinyl-sulfonylmethyl hydroxamic acids and their use as protease inhibitors” (priority 2002, published 2005) are described below.

In assay [1] the target is T1, MMP-13 (Homo sapiens, UniProt P45452).
T1 construct: made in house; host or cells: baculovirus / insect cells
Kind of assay: In vitro MMP inhibition, IC50 determination (fluorogenic substrate I). Type of assay: biochemical. The note with it: value in parenthesis; read-out: MMP-13 (IC-50). As to the method:
Several hydroxamic acids and salts thereof were analyzed in in vitro assays to determine their ability to inhibit the MMP cleavage of peptide substrates. […] and IC50 constants were calculated from the assayed hydroxamic acid-MMP interactions.
Human recombinant MMP-1, MMP-2, MMP-9, MMP-13, and MMP-14 were used in this assay. All enzymes were prepared in Assignee's laboratories following usual laboratory procedures. Protocols for the preparation and use of these enzymes are available in the scientific literature. See, e.g., Enzyme Nomenclature (Academic Press, San Diego, Calif., 1992) (and the citations therein). See also, Freije et al., “Molecular cloning and expression of collagenase-3, a novel human matrix metalloproteinase produced by breast carcinomas,” J Biol. Chem., 269(24), 16766-16773 (1994).
The MMP-13 was obtained as a proenzyme from a full-length cDNA clone using baculovirus, as described by V. A. Luckow, “Insect Cell Expression Technology,” Protein Engineering: Principles and Practice, pp. 183-218 (edited by J. L. Cleland et al., Wiley-Liss, Inc., 1996). The expressed proenzyme was first purified over a heparin agarose column, and then over a chelating zinc chloride column. The proenzyme was then activated by APMA for use in the assay. Further details on baculovirus expression systems may be found in, for example, Luckow et al., J. Virol., 67, 4566-79 (1993). See also, O'Reilly et al, Baculovirus Expression Vectors: A Laboratory Manual (W.H. Freeman and Co., New York, N.Y., 1992). See also, King et al., The Baculovirus Expression System: A Laboratory Guide (Chapman & Hall, London, England, 1992).
All MMPs were activated using 4-aminophenylmercuric acetate (“APMA”, Sigma Chemical, St. Louis, Mo.) or trypsin. MMP-9 also was activated using human recombinant MMP-3 (purified in Assignee's laboratory following standard cloning and purification techniques).
Two fluorogenic, methoxycoumarin-containing polypeptide substrates were used in the MMP inhibition assays: [drawing 427] Here, “Dpa” is 3-(2,4-dinitrophenyl)-L-2,3-diaminopropionyl group, and “MCA” is 7-methoxycoumarin-4-yl acetyl. Substrate (I) was purchased from Baychem (Redwood City, Calif.), and substrate II was prepared Assignee's laboratory. Substrate I was used in the IC50 determination assays, while substrate II was used in the Ki determination assays. In the absence of MMP inhibitory activity, either substrate is cleaved at the Gly-Leu peptide bond. This cleavage separates the highly fluorogenic peptide from the 2,4-dinitrophenyl quencher, thus resulting in increase of fluorescent intensity.
The stock solutions of the assayed hydroxamic acids (or salts thereof) were prepared in 1% dimethyl sulfoxide (DMSO). These stock solutions were diluted in Buffer A (100 mM Tris-HCl, 100 mM NaCl, 10 mM CaCl2, 0.05% polyoxyethylene 23 lauryl ether, pH 7.5) to obtain solutions with different hydroxamic acid concentrations, i.e., assay solutions with different concentrations of the assayed MMP inhibitory compound. The experiment controls contained the same amount of Buffer A/DMSO as the assayed sample, but contained no hydroxamic acid (or salt thereof).
The assays from which the IC50 determinations were made were performed as follows. The MMPs were activated with either trypsin or APMA (4-aminophenylmercuric acetate, Sigma Chemical, St. Louis, Mo.). The assayed hydroxamic acid samples were incubated in Microfluor™ White Plates (Dynatech, Chantilly, Va.) and analyzed on a Perkin Elmer L550 plate reader (Norwalk, Conn.). The excitation wavelength was 328 nm, and the emission wavelength—415 nm. All samples (assayed hydroxamic acids and controls) were incubated in separate plates at room temperature in the presence of 4 μM of MMP substrate (I). As stated in the previous paragraph, samples containing varying concentrations of the same assayed hydroxamic acid were prepared. Inhibition was measured as a reduction in fluorescent intensity as a function of MMP inhibitor concentration. […]

Assay [2] concerns the target T2, MMP-9 (Homo sapiens, UniProt P14780).
T2 construct: made in house; host or cells: MMP-9-transfected HT1080 cells (spent media)
The assay is described as above. Type of assay: biochemical. As to conditions: value in parenthesis; read-out: MMP-9 (IC-50). As to the method:
Several hydroxamic acids and salts thereof were analyzed in in vitro assays to determine their ability to inhibit the MMP cleavage of peptide substrates. […] and IC50 constants were calculated from the assayed hydroxamic acid-MMP interactions. Human recombinant MMP-1, MMP-2, MMP-9, MMP-13, and MMP-14 were used in this assay. All enzymes were prepared in Assignee's laboratories following usual laboratory procedures. Protocols for the preparation and use of these enzymes are available in the scientific literature. See, e.g., Enzyme Nomenclature (Academic Press, San Diego, Calif., 1992) (and the citations therein). See also, Freije et al., “Molecular cloning and expression of collagenase-3, a novel human matrix metalloproteinase produced by breast carcinomas,” J Biol. Chem., 269(24), 16766-16773 (1994). The MMP-9 proenzyme was purified by gelatin Sepharose chromatography from spent media of MMP-9-transfected HT1080 cells provided by Dr. Howard Welgus of Washington University (St. Louis, Mo.). All MMPs were activated using 4-aminophenylmercuric acetate (“APMA”, Sigma Chemical, St. Louis, Mo.) or trypsin. MMP-9 also was activated using human recombinant MMP-3 (purified in Assignee's laboratory following standard cloning and purification techniques). […] Substrate (I) was purchased from Baychem (Redwood City, Calif.), and substrate II was prepared Assignee's laboratory. Substrate I was used in the IC50 determination assays, while substrate II was used in the Ki determination assays. In the absence of MMP inhibitory activity, either substrate is cleaved at the Gly-Leu peptide bond. […] The stock solutions of the assayed hydroxamic acids (or salts thereof) were prepared in 1% dimethyl sulfoxide (DMSO). […] The experiment controls contained the same amount of Buffer A/DMSO as the assayed sample, but contained no hydroxamic acid (or salt thereof). The assays from which the IC50 determinations were made were performed as follows. […] Louis, Mo.). The assayed hydroxamic acid samples were incubated in MicrofluorTM White Plates (Dynatech, Chantilly, Va.) and analyzed on a Perkin Elmer […] plate reader (Norwalk, Conn.). The excitation wavelength was 328 nm, and the emission wavelength-415 nm. […] As stated in the previous paragraph, samples containing varying concentrations of the same assayed hydroxamic acid were prepared. Inhibition was measured as a reduction in fluorescent intensity as a function of MMP inhibitor concentration. […] All values in Table 2 are given in nM units. The IC50 measurements are in parenthesis.

Several values for one entry are separate records, joined by “and”; a condition that tells them apart may be missing. Equal entries are not always repeated. Some results are limits rather than exact numbers.

T2 sequence (P14780 107-707 limits assumed): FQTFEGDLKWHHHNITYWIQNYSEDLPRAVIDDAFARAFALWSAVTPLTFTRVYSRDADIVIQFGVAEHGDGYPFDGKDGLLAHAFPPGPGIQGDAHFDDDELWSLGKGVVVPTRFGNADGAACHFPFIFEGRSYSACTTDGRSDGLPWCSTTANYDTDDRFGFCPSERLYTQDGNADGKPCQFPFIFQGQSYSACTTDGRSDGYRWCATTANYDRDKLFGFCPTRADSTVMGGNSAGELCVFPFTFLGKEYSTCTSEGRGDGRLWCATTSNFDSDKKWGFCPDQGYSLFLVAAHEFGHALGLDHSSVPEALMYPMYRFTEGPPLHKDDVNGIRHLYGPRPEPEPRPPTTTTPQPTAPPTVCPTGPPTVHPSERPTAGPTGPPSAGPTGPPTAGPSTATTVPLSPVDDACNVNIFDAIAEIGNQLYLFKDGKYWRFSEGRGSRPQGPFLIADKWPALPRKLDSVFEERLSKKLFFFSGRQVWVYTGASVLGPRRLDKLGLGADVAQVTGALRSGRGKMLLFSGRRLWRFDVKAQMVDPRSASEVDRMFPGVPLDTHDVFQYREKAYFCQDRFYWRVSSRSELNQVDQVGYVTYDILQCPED

For `CCCC(C)Cc1ccc(N2CCN(S(=O)(=O)C3(C(=O)NO)CCN(CCOC)CC3)CC2)cc1` (centres unmarked) [Example 189], the IC50 in assay [1] came out at 1 nM.

As for `CCC(C)Cc1ccc(N2CCN(S(=O)(=O)C3(C(=O)NO)CCN(CCOC)CC3)CC2)cc1` (centres unmarked) [Example 190], the IC50 in assay [1] is 2.4 nM.

For `COCCN1CCC(C(=O)NO)(S(=O)(=O)N2CCN(c3ccc(CCCCC(C)C)cc3)CC2)CC1` [Example 191], in assay [1], the IC50 is below 1 nM.

As for `COCCN1CCC(C(=O)NO)(S(=O)(=O)N2CCN(c3ccc(CC(C)C)cc3)CC2)CC1` [Example 192], the IC50 in assay [1] was found to be 3.6 nM.

In the case of `CCc1ccc(N2CCN(S(=O)(=O)C3(C(=O)NO)CCN(CCOC)CC3)CC2)cc1` [Example 193], in assay [1], the IC50 came out at 1.9 nM.

Turning to `COCCN1CCC(C(=O)NO)(S(=O)(=O)N2CCN(c3ccc(C)cc3)CC2)CC1` [Example 194], the IC50 in assay [1] stood at 3.1 nM.

For `COCCN1CCC(C(=O)NO)(S(=O)(=O)N2CCN(c3ccccc3)CC2)CC1` [Example 195], in assay [1], the IC50 was 11.5 nM.

Regarding `COCCN1CCC(C(=O)NO)(S(=O)(=O)N2CCN(c3nc4ccccc4o3)CC2)CC1` [Example 196], the IC50 in assay [1] is 177 nM.

With `CCCCCc1ccc(N2CCN(S(=O)(=O)C3(C(=O)NO)CCOCC3)CC2)nn1` [Example 197], in assay [1], the IC50 turned out to be 35.1 nM.

Turning to `O=C(NO)C1(S(=O)(=O)N2CCN(c3ccc(Cl)nn3)CC2)CCOCC1` [Example 198], the IC50 in assay [1] is 285 nM.

For `CCCCCCc1ccc(N2CCN(S(=O)(=O)C3(C(=O)NO)CCN(CCOC)CC3)CC2)cc1` [Example 199], the IC50 in assay [2] came to 1 nM; in assay [1], 0.2 nM.

On to `CCCc1ccc(N2CCN(S(=O)(=O)C3(C(=O)NO)CCN(CCOC)CC3)CC2)cc1` [Example 200], for which the IC50 in assay [2] was below 0.1 nM; in assay [1], 0.6 nM.

Regarding `COCCN1CCC(C(=O)NO)(S(=O)(=O)N2CCN(c3ccc(Br)cc3)CC2)CC1` [Example 201], the IC50 in assay [2] was 5.7 nM; in assay [1], 0.8 nM.

For the compound `COCCN1CCC(C(=O)NO)(S(=O)(=O)N2CCN(c3ccc(OC(F)(F)F)cc3)CC2)CC1` [Example 202], the IC50 in assay [2] is 6.3 nM; in assay [1], 0.2 nM.

On to `O=C(NO)C1(S(=O)(=O)N2CCN(c3ccc(OC(F)(F)F)cc3)CC2)CCN(C2CC2)CC1` [Example 203], for which the IC50 was 3.2 nM and 1.9 nM in assay [2]; 0.5 nM in assay [1].
